Reference: US9598441B2, “Therapeutic compounds and methods” (Wayne State University, priority 2011, dated 2017)

Assays:
[1] = molecular target: T1, His-TAT-HA-tagged A-epitope peptide [CARP-1 (951-980)] (Homo sapiens, UniProt Q8IX12); experiment: In vitro binding of SMIs, immobilized A-epitope peptide pre-incubated with CFM; details: 100 μM, 30 min at RT; WB with anti-Gst
T1 construct: wild-type or scrambled His-TAT-HA-CARP-1 (951-980) peptides; made in house; host or cells: E. coli BL-21 (DE3)
T1 sequence (Q8IX12 951-980 limits assumed): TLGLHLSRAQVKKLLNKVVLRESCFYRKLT
Experimental: The CFM-4 and 5 were separately dissolved in DMSO to obtain a stock of 20-50 mM. For in vitro binding experiments we utilized affinity-purified Gst-APC-2 (685-754) and His-TAT-HA-tagged A-epitope (WT) peptide. Ten nanogram of the His-TAT-HA-tagged A-epitope (WT) peptide was first allowed to bind with Ni-NTA beads (ProBond, InVitrogen), and then the reaction was incubated with DMSO (control), 100 μM CFM-4, or 100 μM CFM-5 for 30 min at RT. The reactions were then subjected to three washes with the binding buffer, followed by incubation with 10 ng of affinity-purified Gst-APC-2 (685-754) peptide for 30 min at RT. The reactions were washed again for three times with PBS, eluted and analyzed on a SDS-PAGE followed by western blotting (WB) with anti-Gst antibodies. A similar strategy was performed by immobilizing the Gst-APC-2 (685-754) peptide with Gst-beads. The beads were washed, incubated with DMSO or the CFMs, and the reactions washed again. The reactions were then allowed to incubate with affinity purified A-epitope peptide, and the complexes analyzed by SDS-PAGE followed by WB with anti HA-tag antibodies.

[2] = test system: drug (ADR or TAM)-resistant MCF-7 HBC cells; experiment: MTT cell viability assay, drug-resistant cells; format: cell-based, human
Text: Routine maintenance and culture of MDA-MB-231, MDA-MB-468, SKBR-3 (all lack ER and have mutant p53), MCF-7, T47D (both have ER and wild-type p53) HBC cells (Runnebaum, I. B., Nagarajan, M., Bowman, M., Soto, D., and Sukumar, S. (1991). Proc. Natl. Acad. Sci. USA 88, 10657-10661), human prostate cancer PC3 and LnCAP cells, HCT-116 human colon cancer, human pancreatic cancer PANC-1 and BxPC-3, Burkett lymphoma Raji, diffuse large B-cell lymphoma WSU-DLCL2, follicular lymphoma WSU-FSCCL cells, cervical cancer HeLa, human mesothelial Met5a, human pleural malignant mesothelioma (MPM), murine MPM AB12 cells (Wang, Y., Rishi, A. K., Puliyappadamba, V. T., Sharma, S., Yang, H., Tarca, A., Dou, Q. P., Lonardo, F., Ruckdeschel, J. C., Pass, H. I., Wali, A. (2010) Can. Chemother. […]
Logarithmically growing cells were either untreated or treated with different agents for various time periods. […] The cell growth inhibition was assessed by using MTT assay. […]

O=C1N(Cc2ccccc2Cl)c2ccccc2C12NN=C(c1ccccc1)S2 (centres unmarked) [CFM-4, 1-(2-chlorobenzyl)-5′-phenyl-3′H-spiro[indoline-3,2′-[1,3,4]thiadiazol]-2-one]
binding of immobilized A-epitope peptide with Gst-APC-2 (685-754) after pre-incubation with compound [1]: abrogated its binding | proliferation of drug-resistant MCF-7 cells (MTT) [2]: inhibited proliferation
